# Test results taken from ChEMBL document CHEMBL3769303, “Discovery of membrane active benzimidazole quinolones-based topoisomerase inhibitors as potential DNA-binding antimicrobial agents” (Eur J Med Chem, 2016).
# Tests used:
# Format in all cases: functional
# Shigella dysenteriae = assay: Antibacterial activity against Shigella dysenteriae by micro broth dilution method
# Staphylococcus aureus [1] = assay: Antibacterial activity against methicillin-resistant Staphylococcus aureus N315 by micro broth dilution method
# Staphylococcus aureus [2] = assay: Antibacterial activity against Staphylococcus aureus ATCC 25923 by micro broth dilution method
# Micrococcus luteus = assay: Antibacterial activity against Micrococcus luteus ATCC 4698 by micro broth dilution method; conditions: NCTC 2665
# Bacillus spizizenii = assay: Antibacterial activity against Bacillus subtilis ATCC 6633 by micro broth dilution method
# Escherichia coli [3] = assay: Antibacterial activity against Escherichia coli DH52 by micro broth dilution method
# Escherichia coli [4] = assay: Antibacterial activity against Escherichia coli JM109 by micro broth dilution method
# Pseudomonas aeruginosa = assay: Antibacterial activity against Pseudomonas aeruginosa ATCC 27853 by micro broth dilution method
# [5] = Antibacterial activity against Bacillus proteus ATCC 13315 by micro broth dilution method
# Salmonella enterica = assay: Antibacterial activity against Salmonella enterica ATCC 14028 by micro broth dilution method
# [6] = Antifungal activity against Candida mycoderma ATCC 9888 after 24 hrs by micro broth dilution method; conditions: Candida vini
# Cyberlindnera jadinii = assay: Antifungal activity against Candida utilis ATCC 9950 after 24 hrs by micro broth dilution method; conditions: Williopsis jadinii, ATCC 9950, 24 h
# Aspergillus flavus = assay: Antifungal activity against Aspergillus flavus ATCC 204304 after 24 hrs by micro broth dilution method; conditions: ATCC 204304, 24 h
# Saccharomyces cerevisiae = assay: Antifungal activity against Saccharomyces cerevisiae ATCC 9763 after 24 hrs by micro broth dilution method; conditions: ATCC 9763, 24 h
# Candida albicans = assay: Antifungal activity against Candida albicans ATCC 10231 after 24 hrs by micro broth dilution method; conditions: ATCC 10231, 24 h
SMILES,MIC (Shigella dysenteriae) [µg/mL],MIC (Staphylococcus aureus [1]) [µg/mL],MIC (Staphylococcus aureus [2]) [µg/mL],MIC (Micrococcus luteus) [µg/mL],MIC (Bacillus spizizenii) [µg/mL],MIC (Escherichia coli [3]) [µg/mL],MIC (Escherichia coli [4]) [µg/mL],MIC (Pseudomonas aeruginosa) [µg/mL],MIC [5] [µg/mL],MIC (Salmonella enterica) [µg/mL],MIC80 [6] [µg/mL],MIC80 (Cyberlindnera jadinii) [µg/mL],MIC80 (Aspergillus flavus) [µg/mL],MIC80 (Saccharomyces cerevisiae) [µg/mL],MIC80 (Candida albicans) [µg/mL]
CCn1c(CN2CCN(c3cc4c(cc3F)c(=O)c(C(=O)O)cn4C3CC3)CC2)nc2ccccc21,8,128,256,2,0.5,2,128,2,0.5,0.5,2,2,4,128,2
CCn1cc(C(=O)O)c(=O)c2cc(F)c(N3CCN(Cc4nc5ccccc5n4Cc4cccc(F)c4)CC3)cc21,1,32,128,64,128,128,128,8,4,8,64,32,2,2,64
O=C(O)c1cn(C2CC2)c2cc(N3CCN(Cc4nc5ccccc5n4Cc4cccc(F)c4)CC3)c(F)cc2c1=O,256,8,256,64,32,256,256,16,128,4,64,256,16,128,64
CCn1cc(C(=O)O)c(=O)c2cc(F)c(N3CCN(Cc4nc5ccccc5n4Cc4ccc(Cl)cc4Cl)CC3)cc21,2,0.125,4,0.25,8,1,4,1,1,0.25,1,0.5,1,2,0.5
O=C(O)c1cn(C2CC2)c2cc(N3CCN(CNc4nc5ccccc5[nH]4)CC3)c(F)cc2c1=O,0.25,0.25,1,1,1,1,4,0.5,1,1,0.5,8,16,4,1
CCn1cc(C(=O)OC)c(=O)c2cc(F)c(N3CCN(/C=N\c4nc5ccccc5[nH]4)CC3)cc21,64,128,64,32,4,32,64,8,32,16,128,64,64,32,64
CCn1cc(C(=O)O)c(=O)c2cc(F)c(N3CCN(Cc4nc5ccccc5n4Cc4ccccc4Cl)CC3)cc21,16,0.125,8,0.5,16,2,16,1,4,0.5,0.5,2,0.5,1,4
CCn1cc(C(=O)O)c(=O)c2cc(F)c(N3CCN(c4nc5ccccc5[nH]4)CC3)cc21,4,4,2,4,2,2,8,2,1,2,16,8,16,32,8
CCn1cc(C(=O)O)c(=O)c2cc(F)c(N3CCN(Cc4nc5ccc(F)cc5[nH]4)CC3)cc21,8,16,16,0.5,8,16,32,4,2,8,1,0.25,0.5,0.5,2
CCCn1c(CN2CCN(c3cc4c(cc3F)c(=O)c(C(=O)O)cn4CC)CC2)nc2ccccc21,32,16,256,8,2,32,128,32,128,16,2,32,32,32,32
